Measured values: patent US7803757B2, “Peptides based on the sequence of human lactoferrin and their use” (PharmaSurgics in Sweden AB, priority 1998, dated 2010)
Converted amounts (≈) assume the structure as drawn. Peptide text beside a SMILES is read from it. * marks the point of attachment. Acm = CC(=O)NC*

Columns and labels:
[1] = tested on: multiresistant S. aureus; experiment: bactericidal activity, multiresistant S. aureus (Example 18); format: cell-based; details: multiresistant S. aureus 5.0×10^5 per ml
Description: In this example the bactericidal activity of two of the peptides according to the invention was studied in a test with a multiresistant S. aureus. A bacterial solution with a concentration of 5.0×10^5 S. aureus bacterial per ml was used. The concentration of each peptide needed to kill 99% of the bacteria (MMC99%) was determined after 2 hours and after 24 hours of incubation at 37° C.

[2] = tested on: E. coli O6K5; experiment: microbicidal activity MMC99%, E. coli O6K5 (Example 28); format: cell-based; details: E. coli O6K5 (Table 24)
Outline: (§1)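 Peptides serially diluted in 1% BHI were incubated with E. coli O6K5 or C. albicans (~1-5×10^5 cells/ml) for 2 h at 37 °C, then spotted on blood agar overnight. MMC99% was the peptide concentration causing 99% reduction of the inoculum.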

[3] = tested on: E. coli O14; experiment: bactericidal activity against E. coli O14, comparison with EP-A-0 629 347 peptides (Example 7); format: cell-based; details: E. coli O14, II: serial dilutions of twofold steps
Description: (§2) In this example an in vitro test was performed to compare the bactericidal and fungicidal activity of the peptides according to the invention with peptides described in EP-A-0 629 347. The peptide according to the invention used was peptide 4, and the peptides according to EP-A-0 629 347 called Morinaga 10, Morinaga 11, Morinaga 12, and Morinaga 13.
(§3) The peptides were incubated with E. coli O14 and Candida albicans. Two concentrations of C. albicans yeast cells were tested, 5·10^6 and 5·10^3 per ml. Different concentrations of the peptides were tested.
(§4) After the incubation, samples were taken for bacterial plating. Serial dilutions of tenfold steps were used in the experiments marked with I in table 5 and of twofold steps in the experiments marked with II.

[4] = tested on: Candida krusei; experiment: fungicidal activity against Candida krusei strains (Example 4); format: cell-based; details: Exp. I
Description: (§5) In this example the fungicidal activity of the peptides according to the invention was tested and compared to the fungicidal activity of human lactoferrin. Different concentrations of hLF, peptide 3 and peptide 4 were incubated with different strains of Candida albicans and Candida krusei during 1-2 hours at 37° C. in 0.05 mM KCl at pH 7.0 at two different occasions—experiment I and II, respectively. After incubation samples were taken for plating on Saboroud plates.

[5] = tested on: Candida albicans; experiment: fungicidal activity against Candida albicans, comparison with EP-A-0 629 347 peptides (Example 7); format: cell-based; details: C. albicans, I (tenfold steps), 5 · 10^3 yeast cells per ml
Description: as §2, §3, §4

[6] = tested on: LPS-induced IL-6 response in a monocytic cell line (THP-1); experiment: inhibition of LPS-induced IL-6 response in THP-1 cells (Example 5); format: cell-based; details: agent added 30 minutes after LPS
Description: In this example an in vitro test was performed to study the anti-inflammatory activity of the peptides according to the invention. More precisely, the inhibitory effect of the peptides according to the invention on the LPS-induced IL-6 response in a monocytic cell line (THP-1) was studied and compared to the effect of human lactoferrin by use of the method described by I. Mattsby-Baltzer et al., Pediatr. Res. 40:257-262, 1996. The IL-6 response in the THP-1 cells was induced by addition of LPS. hLF, peptide 3 and peptide 4, respectively, were added 30 minutes after LPS.

[7] = tested on: Candida albicans; experiment: fungicidal activity against Candida albicans strains (Example 4); format: cell-based
Description: as §5

[8] = tested on: Candida albicans ATCC 64549; experiment: fungicidal and growth inhibitory activity, Candida albicans ATCC 64549 (Example 8); format: cell-based
Description: Candida albicans ATCC 64549 (1·10^5/ml) was incubated in the presence of the peptides during 2 hours at 37° C. in diluted growth medium (BHI, twofold serial dilutions starting with 50 μg/ml). The fungicidal activity was measured by culturing 5 μl from each incubation well on Saboroud agar plates.
The inhibition of growth was measured spectrophotometrically after 20 hours of incubation.

[9] = tested on: C. albicans; experiment: microbicidal activity MMC99%, C. albicans (Example 28); format: cell-based; details: C. albicans (Table 24)
Outline: as §1

[10] = tested on: E. coli O6K5; experiment: urinary tract infection in mice, bacteria (CFU) in kidney (Example 6); format: in vivo; details: 500 μg per mouse orally 30 minutes after instillation, 24 hours
Description: E. coli O6K5 was instilled into the urinary bladder of mice. 30 minutes after instillation the different agents specified in table 5 were administered orally in an amount of 500 μg per mouse and 24 hours after instillation the number of bacteria (CFU) present in bladder and in kidney was determined.
The control group consisted of 10 animals in experiment I and of 23 animals in experiment II. The animals in the control groups were given tap water instead of peptide or hLF.

[11] = tested on: C. albicans; experiment: microbe, parasite or virus in culture; format: cell-based
Description: In the examples, the minimal microbicidal concentrations (MMC) and minimal inhibitory concentrations (MIC) were determined as follows, unless otherwise specified in the examples. Bacterial or fungal strains were cultured in BHI medium over night at 37° C. A volume of the culture was transferred to a new tube with BHI and incubated for two more hours. Thereafter the cells were spun down and the pellet was suspended in BHI medium diluted 1/100 (1% BHI). The concentration of bacterial or fungal cells was spectrophotometrically determined at 650 nm. The microbial concentrations were also determined by viable counts. Peptides serially diluted in 1% BHI by twofold or tenfold steps were added in triplicate to the wells of a microtiterplate (200 μl per well). The bacterial or fungal cell solutions were added in 10 μl volumes to give a final concentration of approximately 1-5×10^5 cells per ml in the well. The microplate was incubated at 37° C. in a humid chamber for two hours. Thereafter 5 μl was taken from each well and added as a drop onto a blood agar plate and incubated over night at 37° C. The microplate was incubated for another 20 hours at 37° C. and thereafter analysed spectrophotometrically at 650 nm in a microplate reader (Emax, Molecular Devices, USA). The concentration of peptide causing a 99% reduction of the inoculum after 2 hours of incubation was defined as the MMC99%. The MIC value was defined as the concentration giving no increase in the absorbance value above the background level after 20 hours of incubation.
Also in this example one of the peptides according to the invention—this time the peptide with SEQ. ID. NO. 4, was compared to a conventional fungicide, amphotericin. The antifungal activity against C. albicans was studied. Twofold serial dilutions with a starting concentration of 20 μg/ml were used. BHI diluted 1/100 was used as growth medium.

CC[C@H](C)[C@H](NC(=O)[C@H](CSCNC(C)=O)NC(=O)[C@H](CO)NC(=O)[C@@H](NC(=O)[C@@H]1CCCN1C(=O)[C@@H]1CCCN1C(=O)CNC(=O)[C@H](CCCNC(=N)N)NC(=O)[C@@H](NC(=O)[C@H](CCCCN)NC(=O)[C@H](CCCNC(=N)N)NC(=O)[C@H](CCSC)NC(=O)[C@H](CC(N)=O)NC(=O)[C@H](CCCNC(=N)N)NC(=O)[C@H](CCC(N)=O)NC(=O)[C@H](Cc1c[nH]c2ccccc12)NC(=O)[C@H](CCC(N)=O)NC(=O)[C@H](Cc1ccccc1)NC(=O)[C@H](CSCNC(C)=O)NC(=O)[C@H](CCCCN)NC(=O)[C@@H](NC(C)=O)[C@@H](C)O)C(C)C)C(C)C)C(=O)N[C@@H](CCCCN)C(=O)N[C@@H](CCCNC(=N)N)C(N)=O [Peptide 4] (Ac-TKC(Acm)FQWQRNMRKVRGPPVSC(Acm)IKR-NH2)
MMC99% ([1]; 2 hours at 37° C.): 5.0 µg/mL
MMC99% ([1]; 24 hours at 37° C.): ≦0.32 μg/ml
MMC99% [2]: 20
Concentration of agent for 100% killing [3]: 12 µg/mL
ratio hLF/pep. (concentration for 99% killing) ([4]; C. krusei CCUG 969): 10
Concentration of agent for 99% killing ([4]; C. krusei CCUG 969, 0.05 mM KCl pH 7.0): 2.5 µg/mL
ratio hLF/pep. (concentration for 99% killing) ([4]; C. krusei CCUG 35849): 10
Concentration of agent for 99% killing ([4]; C. krusei CCUG 35849, 0.05 mM KCl pH 7.0): 1.25 µg/mL
Concentration of agent for 100% killing [5]: 10 µg/mL
% inhibition of LPS response ([6]; IL-6 response in THP-1 cells): 39%
inhibitory activity on the LPS-induced IL-6 response (in words) ([6]; THP-1 cells): significant inhibition
ratio hLF/pep. (concentration for 99% killing) ([7]; Exp. I, C. albicans ATCC 64549): >40
Concentration of agent for 99% killing ([7]; Exp. I, C. albicans ATCC 64549, 0.05 mM KCl pH 7.0, 1-2 hours 37° C.): 1.25 µg/mL
ratio hLF/pep. (concentration for 99% killing) ([7]; Exp. I, C. albicans CCUG 90028): >40
Concentration of agent for 99% killing ([7]; Exp. I, C. albicans CCUG 90028, 0.05 mM KCl pH 7.0): 1.25 µg/mL
ratio hLF/pep. (concentration for 99% killing) ([7]; Exp. II, C. albicans ATCC 64549): >133
Concentration of agent for 99% killing ([7]; Exp. II, C. albicans ATCC 64549, 0.05 mM KCl pH 7.0): 1.5 µg/mL
ratio hLF/pep. (concentration for 99% killing) ([7]; Exp. II, C. albicans CCUG 599): >133
Concentration of agent for 99% killing ([7]; Exp. II, C. albicans CCUG 599, 0.05 mM KCl pH 7.0): 1.5 µg/mL
ratio hLF/pep. (concentration for 99% killing) ([7]; Exp. II, C. albicans CCUG 1759): >133
Concentration of agent for 99% killing ([7]; Exp. II, C. albicans CCUG 1759, 0.05 mM KCl pH 7.0): 1.5 µg/mL
Concentration of agent for 100% killing ([8]; C. albicans ATCC 64549 1·10^5/ml, 2 hours 37° C., diluted BHI): 6.2 µg/mL
Concentration of agent for inhibition of growth ([8]; C. albicans ATCC 64549, spectrophotometrically after 20 hours): 6.2 µg/mL
MMC99% [9]: 5
Statistical comparison of treatment group with control group of the number of bacteria, CFU, present in kidney (p, Mann-Whitney) ([10]; Exp I, mouse strain CH/HeN): p = 0.0137
Statistical comparison of treatment group with control group of the number of bacteria, CFU, present in kidney (p, Mann-Whitney) ([10]; Exp II, mouse strain C3H/Tif): p = 0.0102
MIC [11]: 5.0 µg/mL (≈ 1.67 µM)
MMC99% ([11]; C. albicans, BHI diluted 1/100, twofold dilutions from 20 μg/ml): 5.0 µg/mL
